Results taken from ChEMBL document CHEMBL3745645, “Synthesis, in vitro antitumor activity, dihydrofolate reductase inhibition, DNA intercalation and structure-activity relationship studies of 1,3,5-triazine analogues” (Bioorg Med Chem Lett, 2016).
The source made the active and inactive calls. The calls are words filed in the database; no cut-off is given here.

What was measured:
K562 [1] = experiment: Cytotoxicity against human K562 cells at 10 uM after 48 hrs by SRB assay; format: functional; details: K562, 48 h, read-out: GI
HCT-15 = experiment: (§1) Cytotoxicity against human HCT15 cells at 10 uM after 48 hrs by SRB assay; format: functional
[2] = Cytotoxicity against human UACC62 cells at 10 uM after 48 hrs by SRB assay; format: functional; details: UACC-62, 48 h, read-out: GI
[3] = Cytotoxicity against human SW620 cells at 10 uM after 48 hrs by SRB assay; format: functional; details: SW-620, 48 h, read-out: GI
NCI-H23 = experiment: Cytotoxicity against human NCI-H23 cells at 10 uM after 48 hrs by SRB assay; format: functional; details: NCI-H23, 48 h, read-out: GI
[4] = Cytotoxicity against human SF295 cells at 10 uM after 48 hrs by SRB assay; format: functional; details: SF-295, 48 h, read-out: GI
HCC 2998 = experiment: (§2) Cytotoxicity against human HCC2998 cells at 10 uM after 48 hrs by SRB assay; format: functional
A549 [5] = experiment: Cytotoxicity against human A549 cells at 10 uM after 48 hrs by SRB assay; format: functional; details: A549, 48 h, read-out: GI
[6] = Cytotoxicity against human COLO205 cells at 10 uM after 48 hrs by SRB assay; format: functional; details: COLO 205, 48 h, read-out: GI
SK-MEL-2 = experiment: Cytotoxicity against human SK-MEL-2 cells at 10 uM after 48 hrs by SRB assay; format: functional; details: SK-MEL-2, 48 h, read-out: GI
[7] = (§3) Cytotoxicity against human RPMI8226 cells at 10 uM after 48 hrs by SRB assay; format: functional; details: RPMI-8226, 48 h, read-out: GI
M14 = experiment: Cytotoxicity against human M14 cells at 10 uM after 48 hrs by SRB assay; format: functional; details: M14, 48 h, read-out: GI
[8] = Cytotoxicity against human HOP92 cells at 10 uM after 48 hrs by SRB assay; format: functional; details: HOP-92, 48 h, read-out: GI
[9] = Cytotoxicity against human PC3 cells at 10 uM after 48 hrs by SRB assay; format: functional; details: PC-3, 48 h, read-out: GI
[10] = Cytotoxicity against human TK10 cells at 10 uM after 48 hrs by SRB assay; format: functional; details: TK-10, 48 h, read-out: GI
[11] = Cytotoxicity against human LOXIMVI cells at 10 uM after 48 hrs by SRB assay; format: functional; details: LOX IMVI, read-out: GI
[12] = Cytotoxicity against human Hs 578T cells at 10 uM after 48 hrs by SRB assay; format: functional; details: read-out: GI
MDA-MB-435 = experiment: Cytotoxicity against human MDA-MB-435 cells at 10 uM after 48 hrs by SRB assay; format: functional; details: MDA-MB-435, 48 h, read-out: GI
[13] = Cytotoxicity against human OVCAR5 cells at 10 uM after 48 hrs by SRB assay; format: functional; details: OVCAR-5, 48 h, read-out: GI
[14] = Cytotoxicity against human UACC257 cells at 10 uM after 48 hrs by SRB assay; format: functional; details: UACC-257, 48 h, read-out: GI
[15] = Cytotoxicity against human BT549 cells at 10 uM after 48 hrs by SRB assay; format: functional; details: BT-549, 48 h, read-out: GI
ACHN = experiment: Cytotoxicity against human ACHN cells at 10 uM after 48 hrs by SRB assay; format: functional; details: read-out: GI
OVCAR-4 = experiment: (§4) Cytotoxicity against human OVCAR4 cells at 10 uM after 48 hrs by SRB assay; format: functional
[16] = Cytotoxicity against human NCI-ADR-RES cells at 10 uM after 48 hrs by SRB assay; format: functional; details: read-out: GI
HL-60(TB) = experiment: Cytotoxicity against human HL-60(TB) cells at 10 uM after 48 hrs by SRB assay; format: functional
[17] = as §1; format: functional; details: HCT-15, 48 h, read-out: GI
[18] = Cytotoxicity against human DU145 cells after 48 hrs by SRB assay; format: functional; details: DU-145, 48 h, read-out: LC50 (the source's name)
[19] = as §2; format: functional; details: HCC 2998, 48 h, read-out: GI
786-0 = experiment: Cytotoxicity against human 786-0 cells after 48 hrs by SRB assay; format: functional; details: 786-0, 48 h, pooled result: one value given for 8 cell lines, strains, targets or settings
Calf thymus DNA [20] = experiment: Binding affinity to calf thymus DNA by UV-vis spectrometric analysis; format: nucleic-acid assay; details: Bos taurus
[21] = Cytotoxicity against human LOXIMVI cells after 48 hrs by SRB assay; format: functional; details: LOX IMVI, pooled result: one value given for 9 cell lines, strains, targets or settings
RPMI-8226 = experiment: as §3; format: functional
[22] = Cytotoxicity against human SF268 cells after 48 hrs by SRB assay; format: functional; details: SF-268, 48 h, pooled result: one value given for 6 cell lines, strains, targets or settings
A549 [23] = experiment: Cytotoxicity against human A549 cells after 48 hrs by SRB assay; format: functional; details: A549, 48 h, pooled result: one value given for 8 cell lines, strains, targets or settings
[24] = Cytotoxicity against human PC3 cells after 48 hrs by SRB assay; format: functional; details: PC-3, 48 h
K562 [25] = experiment: Cytotoxicity against human K562 cells after 48 hrs by SRB assay; format: functional; details: K562, 48 h
MCF7 = experiment: Cytotoxicity against human MCF7 cells after 48 hrs by SRB assay; format: functional; details: MCF7, 48 h, pooled result: one value given for 6 cell lines, strains, targets or settings
CCRF-CEM = experiment: Cytotoxicity against human CCRF-CEM cells after 48 hrs by SRB assay; format: functional
Calf thymus DNA [26] = experiment: Binding affinity to calf thymus DNA assessed as melting temperature by spectrophotometric analysis (reference value: 60 degC); format: nucleic-acid assay; details: Bos taurus
[27] = as §4; format: functional; details: OVCAR-4, 48 h, read-out: GI
[28] = pooled result: one value given for 2 cell lines, strains, targets or settings
[29] = pooled result: one value given for 6 cell lines, strains, targets or settings

Cc1nc2ccc(Nc3nc(NCCN)nc(Nc4ccc(F)cc4)n3)cc2n1Cc1ccccc1
inhibition of growth at 10 µM (K562 [1]): 61.3%
growth inhibition (GI) (HCT-15): inactive
inhibition of growth at 10 µM [2]: 9.33%
inhibition of growth at 10 µM [3]: 1.71%
inhibition of growth at 10 µM (NCI-H23): 10.4%
inhibition of growth at 10 µM [4]: 11.6%
growth inhibition (GI) (HCC 2998): inactive
inhibition of growth at 10 µM (A549 [5]): 13.2%
inhibition of growth at 10 µM [6]: 33.6%
inhibition of growth at 10 µM (SK-MEL-2): 19.9%
inhibition of growth at 10 µM [7]: 46.2%
inhibition of growth at 10 µM (M14): 16.4%
inhibition of growth at 10 µM [8]: 56.8%
inhibition of growth at 10 µM [9]: 26.9%
inhibition of growth at 10 µM [10]: 26.1%
inhibition of growth at 10 µM [11]: 30%
inhibition of growth at 10 µM [12]: 20.5%
inhibition of growth at 10 µM (MDA-MB-435): 9.38%
inhibition of growth at 10 µM [13]: 6.17%
inhibition of growth at 10 µM [14]: 15.9%
inhibition of growth at 10 µM [15]: 17%
inhibition of growth at 10 µM (ACHN): 8.19%
growth inhibition (GI) (OVCAR-4): inactive

COc1ccc(-c2nc(Nc3ccc(F)cc3)nc(Nc3ccc4c(c3)nc(C)n4Cc3ccccc3)n2)cc1
inhibition of growth at 10 µM (K562 [1]): 83.4%
inhibition of growth at 10 µM [16]: 73.4%
growth inhibition (GI) (HL-60(TB)): Active
inhibition of growth at 10 µM [17]: 66.6%
CC50 [18]: > 100 µM
inhibition of growth at 10 µM [3]: 54.3%
inhibition of growth at 10 µM [4]: 51%
inhibition of growth at 10 µM [19]: 54.5%
inhibition of growth at 10 µM (A549 [5]): 68%
GI50 (786-0): 3.4 µM
LC50 (concentration killing 50% of cells) (786-0): > 100 µM
TGI (786-0): 27.7 µM
Ka (Calf thymus DNA [20]): 2.96 ×10⁴ /M
inhibition of growth at 10 µM [6]: 71.8%
GI50 [21]: 4.43 µM
LC50 [21]: > 100 µM
TGI [21]: 31.2 µM
inhibition of growth at 10 µM (SK-MEL-2): 51.8%
growth inhibition (GI) (RPMI-8226): Active
inhibition of growth at 10 µM (M14): 61.1%
inhibition of growth at 10 µM [8]: 60.3%
GI50 [22]: 4.98 µM
LC50 (concentration killing 50% of cells) [22]: > 100 µM
TGI [22]: > 100 µM
GI50 (A549 [23]): 5.14 µM
LC50 (A549 [23]): > 100 µM
TGI (A549 [23]): 20.9 µM
inhibition of growth at 10 µM [10]: 25.1%
LC50 [24]: > 100 µM
GI50 [24, 28]: 5.35 µM
TGI [24, 28]: > 100 µM
inhibition of growth at 10 µM [11]: 61.1%
inhibition of growth at 10 µM [12]: 45.5%
LC50 (K562 [25]): > 100 µM
inhibition of growth at 10 µM (MDA-MB-435): 65.9%
GI50 (MCF7): 3.6 µM
LC50 (concentration killing 50% of cells) (MCF7): > 100 µM
TGI (MCF7): 23.4 µM
inhibition of growth at 10 µM [13]: 11.9%
LC50 (CCRF-CEM): > 100 µM
GI50 (CCRF-CEM; [29]): 3.37 µM
TGI (CCRF-CEM; [29]): 67.9 µM
inhibition of growth at 10 µM [14]: 56.2%
Tm (Calf thymus DNA [26]): 67.5 °C
inhibition of growth at 10 µM [15]: 29.3%
inhibition of growth at 10 µM (ACHN): 62.9%
inhibition of growth at 10 µM [27]: 57.4%
